Laboratory results: patent publication US20240174618A1, “SUBSTITUTED (2-HETEROARYLOXYPHENYL)SULFONATES, SALTS THEREOF AND THEIR USE AS HERBICIDAL AGENTS” (Bayer Aktiengesellschaft, priority 2021, published 2024)

Key:
Assay type in all cases: in vivo
[1] = test system: Digitaria sanguinalis (DIGSA); experiment: A. Herbicidal pre-emergence efficacy, DIGSA; settings: scored visually after about 3 weeks vs untreated controls
Method in brief: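 Applied before emergence onto covering soil at rates of 1280 g/ha or less, using 600 L/ha spray water with 0.5% additive. Scoring: visual % efficacy after ~3 weeks, greenhouse.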

Lolium rigidum (LOLRI) = experiment: B. Herbicidal post-emergence efficacy, LOLRI
Experimental: (§1) Seeds of mono- and dicotyledonous weed plants were placed in plastic pots in sandy loam soil (doubly sown with in each case one species of mono- or dicotyledonous weed plants per pot), covered with soil and cultivated in a greenhouse under controlled growth conditions. 2 to 3 weeks after sowing, the test plants were treated at the one-leaf stage. The compounds of the invention, formulated in the form of wettable powders (WP) or as emulsion concentrates (EC), were applied onto the green parts of the plants as aqueous suspension or emulsion with addition of 0.5% additive at a water application rate of 600 liters per hectare (converted). After the test plants had been kept in the greenhouse under optimum growth conditions for about 3 weeks, the activity of the preparations was rated visually in comparison to untreated controls.
(§2) For example, • 100% efficacy=plants have died, • 0% efficacy=like untreated control plants
(§3) Tables B1a to B12c below show the effects of selected inventive compounds of the general formula (I) according to table 1 on various harmful plants at an application rate corresponding to 1280 g/ha or less, which were obtained by the experimental procedure mentioned above.

Veronica persica (VERPE) = experiment: B. Herbicidal post-emergence efficacy, VERPE
Method in brief: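 Weeds grown in sandy loam in greenhouse pots, sprayed at one-leaf stage (2–3 weeks after sowing) with WP or EC formulations as aqueous suspension/emulsion plus 0.5% additive at 600 L/ha water, rates up to 1280 g/ha. Visual efficacy rated about 3 weeks later versus untreated controls (0% = like control, 100% = dead).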

[2] = test system: Alopecurus myosuroides (ALOMY); experiment: B. Herbicidal post-emergence efficacy, ALOMY; settings: 1280 g/ha, rated visually after about 3 weeks
Experimental: as §1, §2, §3

[3] = test system: Digitaria sanguinalis (DIGSA); experiment: E. Herbicidal post-emergence efficacy, DIGSA
Experimental: Seeds of monocotyledonous and dicotyledonous weeds and crop plants were placed in sandy loam in plastic or organic planting pots, covered with soil and cultivated in a greenhouse under controlled growth conditions. 2 to 3 weeks after sowing, the test plants were treated at the one-leaf stage. The compounds of the invention, formulated in the form of wettable powders (WP) or as emulsion concentrates (EC), were then sprayed onto the green parts of the plants as aqueous suspension or emulsion with addition of 0.5% additive at a water application rate of 600 l/ha (converted). After the test plants had been kept in the greenhouse under optimum growth conditions for about 3 weeks, the activity of the preparations was rated visually in comparison to untreated controls.
For example, • 100% efficacy=plants have died, • 0% action=like untreated control plants.
Tables E1a to E12b below show the effects of selected compounds of the general formula (I) according to table 1 on various harmful plants at an application rate corresponding to 320 g/ha or less, which were obtained by the experimental procedure mentioned above.

Zea mays (ZEAMX) = experiment: F. Post-emergence effect on useful plants, ZEAMX; settings: useful plant
Method in brief: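 Visual efficacy rating versus untreated plants, from 0% (no effect) to 100% (plants died), made about 3 weeks after post-emergence treatment. Formulated compounds (WP or EC, 0.5% additive, 600 l/ha water) were sprayed onto greenhouse-grown crops at the one-leaf stage, 2-3 weeks after sowing.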

[4] = test system: Pharbitis purpurea (PHBPU); experiment: C. Herbicidal pre-emergence efficacy, PHBPU; settings: 320 g/ha, scored after about 3 weeks
Text: Seeds of monocotyledonous and dicotyledonous weed plants and crop plants were placed in plastic or organic planting pots and covered with soil. The compounds of the invention, formulated in the form of wettable powders (WP) or as emulsion concentrates (EC), were then applied to the surface of the covering soil as aqueous suspension or emulsion with addition of 0.5% additive at a water application rate equivalent to 600 l/ha (converted). After the treatment, the pots were placed in a greenhouse and kept under good growth conditions for the test plants. After about 3 weeks, the efficacy of the preparations was scored visually in comparison with untreated controls as percentages. For example, • 100% efficacy=plants have died, • 0% efficacy=like untreated control plants.
Tables C1a to C14b below show the effects of selected compounds of the general formula (I) according to table 1 on various harmful plants at an application rate corresponding to 320 g/ha or less, which were obtained by the experimental procedure mentioned above.

| Post-emergence efficacy against ZEAMX in % (Zea mays (ZEAMX); application rate 80 g/ha) [%] | Post-emergence efficacy against ZEAMX in % (Zea mays (ZEAMX); application rate 320 g/ha) [%] | SMILES | Pre-emergence efficacy against DIGSA ([1]; 80 g/ha) [%] | Pre-emergence efficacy against DIGSA ([1]; 320 g/ha) [%] | Pre-emergence efficacy against DIGSA ([1]; 1280 g/ha) [%] | Post-emergence efficacy against LOLRI (Lolium rigidum (LOLRI); 1280 g/ha) [%] | Post-emergence efficacy against VERPE (Veronica persica (VERPE); 80 g/ha) [%] | Post-emergence efficacy against VERPE (Veronica persica (VERPE); 320 g/ha) [%] | Post-emergence efficacy against VERPE (Veronica persica (VERPE); 1280 g/ha) [%] | Post-emergence efficacy against ALOMY in % [2] [%] | Post-emergence efficacy against DIGSA in % ([3]; application rate 320 g/ha) [%] | Post-emergence efficacy against LOLRI (Lolium rigidum (LOLRI); 320 g/ha) [%] | Pre-emergence efficacy against PHBPU [4] [%] | Post-emergence efficacy against DIGSA in % ([3]; application rate 80 g/ha) [%] |
| --- | --- | --- | --- | --- | --- | --- | --- | --- | --- | --- | --- | --- | --- | --- |
| – | – | Cc1cccc(Oc2ncc(Cl)cn2)c1OS(=O)(=O)CCC(F)(F)F [Example I-29] | 90 | 100 | 100 | 90 | 90 | 90 | 100 | – | – | – | – | – |
| – | – | O=S(=O)(CCCC(F)(F)F)Oc1c(Br)cccc1Oc1ncc(Cl)cn1 [Example I-30] | – | 100 | 100 | – | 90 | 100 | 100 | – | – | – | – | – |
| – | – | Cc1cccc(Oc2ncc(F)cn2)c1OS(=O)(=O)CCC(F)(F)F [Example I-45] | 90 | 100 | 100 | – | – | – | – | 90 | – | – | – | – |
| – | – | O=S(=O)(CCC1CC1)Oc1c(F)cccc1Oc1ncc(Cl)cn1 [Example I-55] | 100 | 100 | 100 | – | 90 | 90 | 90 | 90 | 90 | – | – | – |
| 0 | 0 | C=CCS(=O)(=O)Oc1ccccc1Oc1ncc(Cl)cn1 [Example I-36] | – | 90 | 100 | – | – | 90 | 100 | – | – | – | – | – |
| – | – | O=S(=O)(CCCCCl)Oc1ccccc1Oc1ncc(Cl)cn1 [Example I-15] | – | – | – | 90 | 100 | 100 | 100 | – | 90 | 90 | 90 | 80 |
| – | – | O=S(=O)(CCCC(F)(F)C(F)(F)F)Oc1c(F)cccc1Oc1ncc(Cl)cn1 [Example I-68] | – | 90 | 100 | – | 100 | 100 | 100 | – | 90 | – | – | – |
| – | – | Cc1cccc(OS(=O)(=O)CCCCl)c1Oc1ncc(Cl)cn1 [Example I-12] | – | – | – | 90 | – | – | 90 | – | – | 90 | – | – |
| 0 | 0 | O=S(=O)(CCC(F)(F)F)Oc1c(Br)cccc1Oc1ncc(F)cn1 [Example I-43] | – | 100 | 100 | – | – | – | – | – | – | – | – | – |
| – | – | Cc1cccc(Oc2ncc(Cl)cn2)c1OS(=O)(=O)CCCC(F)(F)F [Example I-28, 2-[(5-Chloropyrimidin-2-yl)oxy]-6-methylphenyl 4,4,4-trifluorobutane-1-sulfonate] | 90 | 100 | 100 | – | 100 | 100 | 100 | – | – | – | – | – |
| – | – | Cc1cccc(Oc2ncc(F)cn2)c1OS(=O)(=O)CCCC(F)(F)F [Example I-46] | 90 | 100 | 100 | – | – | – | – | 90 | – | – | – | – |
| – | – | C=CCCS(=O)(=O)Oc1c(F)cccc1Oc1ncc(Cl)cn1 [Example I-50] | 90 | 90 | 100 | – | – | 90 | 90 | – | – | – | – | – |
